Literature values as cited in patent publication US20190274971A1, “USE OF AMERICAN GINSENG TO […]-INDUCED INTOXICATION” (ENGEN MEDICAL CORPORATION, priority 2018, published 2019).

Molecular target: CB1 receptor (Homo sapiens, UniProt P21554)
Conditions: literature statement (Leonti et al., Biochemical Pharmacology 79(12):1815-1826, 2010)

Sequence of CB1 receptor (P21554 whole entry): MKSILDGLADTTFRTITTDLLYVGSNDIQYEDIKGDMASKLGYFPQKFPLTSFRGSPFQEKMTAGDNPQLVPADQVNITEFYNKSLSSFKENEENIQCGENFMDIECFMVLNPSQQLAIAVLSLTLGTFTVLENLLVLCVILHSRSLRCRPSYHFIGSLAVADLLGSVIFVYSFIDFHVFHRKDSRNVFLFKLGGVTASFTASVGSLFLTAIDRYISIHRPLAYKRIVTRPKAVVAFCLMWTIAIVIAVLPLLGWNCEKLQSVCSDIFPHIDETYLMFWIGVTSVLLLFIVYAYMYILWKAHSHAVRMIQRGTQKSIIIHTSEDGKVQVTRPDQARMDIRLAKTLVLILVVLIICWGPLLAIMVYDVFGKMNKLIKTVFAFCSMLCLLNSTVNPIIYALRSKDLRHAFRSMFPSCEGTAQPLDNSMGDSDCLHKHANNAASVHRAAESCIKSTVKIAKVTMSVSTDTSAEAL

C=C[C@H](O)C#CC#CC/C=C\CCCCCCC [falcarinol]
activity at the CB1 receptor: potent inverse agonist
